# Laboratory results reported in ChEMBL document CHEMBL3611972, “Leishmanicidal, antiproteolytic, and mutagenic evaluation of alkyltriazoles and alkylphosphocholines” (Eur J Med Chem, 2015).
# How the values were obtained:
# Salmonella typhimurium [1] = experiment: Mutagenicity in Salmonella typhimurium TA97a assessed as mutagenicity index at 700.00 uM/plate incubated for 90 mins at 37 degC in absence of liver S9 fractions by Ames test relative to untreated control; format: toxicity, organism-based; conditions: salmonella enterica subsp. enterica serovar typhimurium, 1.5 h
# Salmonella typhimurium [2] = experiment: Mutagenicity in Salmonella typhimurium TA97a assessed as mutagenicity index at 296.15 uM/plate incubated for 90 mins at 37 degC in presence of liver S9 fractions by Ames test relative to untreated control; format: toxicity, organism-based; conditions: salmonella enterica subsp. enterica serovar typhimurium, s9, 1.5 h
# Salmonella typhimurium [3] = experiment: Mutagenicity in Salmonella typhimurium TA102 assessed as mutagenicity index at 296.15 uM/plate incubated for 90 mins at 37 degC in absence of liver S9 fractions by Ames test relative to untreated control; format: toxicity, organism-based; conditions: salmonella enterica subsp. enterica serovar typhimurium, 1.5 h
# Salmonella typhimurium [4] = experiment: Mutagenicity in Salmonella typhimurium TA98 assessed as mutagenicity index at 296.15 uM/plate incubated for 90 mins at 37 degC in absence of liver S9 fractions by Ames test relative to untreated control; format: toxicity, organism-based; conditions: salmonella enterica subsp. enterica serovar typhimurium, 1.5 h
# Salmonella typhimurium [5] = experiment: Mutagenicity in Salmonella typhimurium TA100 assessed as mutagenicity index at 570.37 uM/plate incubated for 90 mins at 37 degC in presence of liver S9 fractions by Ames test relative to untreated control; format: toxicity, organism-based; conditions: salmonella enterica subsp. enterica serovar typhimurium, s9, 1.5 h
# Salmonella typhimurium [6] = experiment: Mutagenicity in Salmonella typhimurium TA102 assessed as mutagenicity index at 435.85 uM/plate incubated for 90 mins at 37 degC in presence of liver S9 fractions by Ames test relative to untreated control; format: toxicity, organism-based; conditions: salmonella enterica subsp. enterica serovar typhimurium, s9, 1.5 h
# Salmonella typhimurium [7] = experiment: Mutagenicity in Salmonella typhimurium TA102 assessed as mutagenicity index at 700.00 uM/plate incubated for 90 mins at 37 degC in presence of liver S9 fractions by Ames test relative to untreated control; format: toxicity, organism-based; conditions: salmonella enterica subsp. enterica serovar typhimurium, s9, 1.5 h
# Salmonella typhimurium [8] = experiment: Mutagenicity in Salmonella typhimurium TA98 assessed as mutagenicity index at 296.15 uM/plate incubated for 90 mins at 37 degC in presence of liver S9 fractions by Ames test relative to untreated control; format: toxicity, organism-based; conditions: salmonella enterica subsp. enterica serovar typhimurium, s9, 1.5 h
# Salmonella typhimurium [9] = experiment: Mutagenicity in Salmonella typhimurium TA102 assessed as mutagenicity index at 150.98 uM/plate incubated for 90 mins at 37 degC in presence of liver S9 fractions by Ames test relative to untreated control; format: toxicity, organism-based; conditions: salmonella enterica subsp. enterica serovar typhimurium, s9, 1.5 h
# Salmonella typhimurium [10] = experiment: Mutagenicity in Salmonella typhimurium TA97a assessed as mutagenicity index at 150.98 uM/plate incubated for 90 mins at 37 degC in presence of liver S9 fractions by Ames test relative to untreated control; format: toxicity, organism-based; conditions: salmonella enterica subsp. enterica serovar typhimurium, s9, 1.5 h
# Salmonella typhimurium [11] = experiment: Mutagenicity in Salmonella typhimurium TA100 assessed as mutagenicity index at 435.85 uM/plate incubated for 90 mins at 37 degC in absence of liver S9 fractions by Ames test relative to untreated control; format: toxicity, organism-based; conditions: salmonella enterica subsp. enterica serovar typhimurium, 1.5 h
# Salmonella typhimurium [12] = experiment: Mutagenicity in Salmonella typhimurium TA97a assessed as mutagenicity index at 150.98 uM/plate incubated for 90 mins at 37 degC in absence of liver S9 fractions by Ames test relative to untreated control; format: toxicity, organism-based; conditions: salmonella enterica subsp. enterica serovar typhimurium, 1.5 h
# Salmonella typhimurium [13] = experiment: Mutagenicity in Salmonella typhimurium TA102 assessed as mutagenicity index at 570.37 uM/plate incubated for 90 mins at 37 degC in absence of liver S9 fractions by Ames test relative to untreated control; format: toxicity, organism-based; conditions: salmonella enterica subsp. enterica serovar typhimurium, 1.5 h
# Salmonella typhimurium [14] = experiment: Mutagenicity in Salmonella typhimurium TA102 assessed as mutagenicity index at 570.37 uM/plate incubated for 90 mins at 37 degC in presence of liver S9 fractions by Ames test relative to untreated control; format: toxicity, organism-based; conditions: salmonella enterica subsp. enterica serovar typhimurium, s9, 1.5 h
# Salmonella typhimurium [15] = experiment: Mutagenicity in Salmonella typhimurium TA97a assessed as mutagenicity index at 296.15 uM/plate incubated for 90 mins at 37 degC in absence of liver S9 fractions by Ames test relative to untreated control; format: toxicity, organism-based; conditions: salmonella enterica subsp. enterica serovar typhimurium, 1.5 h
# Salmonella typhimurium [16] = experiment: Mutagenicity in Salmonella typhimurium TA100 assessed as mutagenicity index at 1185.19 uM/plate incubated for 90 mins at 37 degC in absence of liver S9 fractions by Ames test relative to control; format: toxicity, organism-based; conditions: salmonella enterica subsp. enterica serovar typhimurium, 1.5 h
# Salmonella typhimurium [17] = experiment: Mutagenicity in Salmonella typhimurium TA102 assessed as mutagenicity index at 905.66 uM/plate incubated for 90 mins at 37 degC in absence of liver S9 fractions by Ames test relative to control; format: toxicity, organism-based; conditions: salmonella enterica subsp. enterica serovar typhimurium, 1.5 h
# Salmonella typhimurium [18] = experiment: Mutagenicity in Salmonella typhimurium TA102 assessed as mutagenicity index at 616.38 uM/plate incubated for 90 mins at 37 degC in presence of liver S9 fractions by Ames test relative to control; format: toxicity, organism-based; conditions: salmonella enterica subsp. enterica serovar typhimurium, s9, 1.5 h
# Salmonella typhimurium [19] = experiment: Mutagenicity in Salmonella typhimurium TA97a assessed as mutagenicity index at 905.66 uM/plate incubated for 90 mins at 37 degC in presence of liver S9 fractions by Ames test relative to control; format: toxicity, organism-based; conditions: salmonella enterica subsp. enterica serovar typhimurium, s9, 1.5 h
# Salmonella typhimurium [20] = experiment: Mutagenicity in Salmonella typhimurium TA100 assessed as mutagenicity index at 313.73 uM/plate incubated for 90 mins at 37 degC in absence of liver S9 fractions by Ames test relative to control; format: toxicity, organism-based; conditions: salmonella enterica subsp. enterica serovar typhimurium, 1.5 h
# Salmonella typhimurium [21] = experiment: Mutagenicity in Salmonella typhimurium TA98 assessed as mutagenicity index at 313.73 uM/plate incubated for 90 mins at 37 degC in absence of liver S9 fractions by Ames test relative to control; format: toxicity, organism-based; conditions: salmonella enterica subsp. enterica serovar typhimurium, 1.5 h
# Salmonella typhimurium [22] = experiment: Mutagenicity in Salmonella typhimurium TA100 assessed as mutagenicity index at 616.38 uM/plate incubated for 90 mins at 37 degC in absence of liver S9 fractions by Ames test relative to control; format: toxicity, organism-based; conditions: salmonella enterica subsp. enterica serovar typhimurium, 1.5 h
# [23] = Mutagenicity in CHOK1 cells assessed as induction of chromosomal DNA mutation by measuring micronuclei level at 14.51 to 58.04 incubated for 3 hrs by cytokinesis-block micronucleus assay; format: toxicity, cell-based, Cricetulus griseus; conditions: chinese hamster, cho-k1, 3 h
# Salmonella typhimurium [24] = experiment: Mutagenicity in Salmonella typhimurium TA97a assessed as mutagenicity index at 1185.19 uM/plate incubated for 90 mins at 37 degC in presence of liver S9 fractions by Ames test relative to control; format: toxicity, organism-based; conditions: salmonella enterica subsp. enterica serovar typhimurium, s9, 1.5 h
# [25] = Mutagenicity in CHOK1 cells assessed as induction of chromosomal DNA mutation by measuring nuclear division index level at 14.51 to 58.04 incubated for 3 hrs by fluorescence microscopy; format: toxicity, cell-based, Cricetulus griseus; conditions: chinese hamster, cho-k1, 3 h
# Salmonella typhimurium [26] = experiment: Mutagenicity in Salmonella typhimurium TA100 assessed as mutagenicity index at 616.38 uM/plate incubated for 90 mins at 37 degC in presence of liver S9 fractions by Ames test relative to control; format: toxicity, organism-based; conditions: salmonella enterica subsp. enterica serovar typhimurium, s9, 1.5 h
smiles,measurement,setting,value
CS(=O)(=O)OCCCCCCCCCCCCn1cc(CCCO)nn1,Activity_index,Salmonella typhimurium [1],1.1
same,Activity_index,Salmonella typhimurium [2],0.9
same,Activity_index,Salmonella typhimurium [3],0.9
same,Activity_index,Salmonella typhimurium [4],1.2
same,Activity_index,Salmonella typhimurium [5],0.8
same,Activity_index,Salmonella typhimurium [6],1.1
same,Activity_index,Salmonella typhimurium [7],1.4
same,Activity_index,Salmonella typhimurium [8],1.1
same,Activity_index,Salmonella typhimurium [9],1.1
same,Activity_index,Salmonella typhimurium [10],0.9
same,Activity_index,Salmonella typhimurium [11],1.2
same,Activity_index,Salmonella typhimurium [12],1.3
same,Activity_index,Salmonella typhimurium [13],1
same,Activity_index,Salmonella typhimurium [14],1.4
same,Activity_index,Salmonella typhimurium [15],1.1
CCOC(=O)c1cn(CCCCCCCCCOS(C)(=O)=O)nn1,Activity_index,Salmonella typhimurium [16],1.3
same,Activity_index,Salmonella typhimurium [17],0.9
same,Activity_index,Salmonella typhimurium [18],1.7
same,Activity_index,Salmonella typhimurium [19],0.9
same,Activity_index,Salmonella typhimurium [20],1.2
same,Activity_index,Salmonella typhimurium [21],1.5
same,Activity_index,Salmonella typhimurium [22],1.3
same,Activity,[23],Non-toxic
same,Activity_index,Salmonella typhimurium [24],0.7
same,Activity,[25],Non-toxic
same,Activity_index,Salmonella typhimurium [26],1
